Measurements: US20140283155A1, “REPRESSIBLE LETHAL SYSTEM FOR REGULATING INSECT POPULATIONS” (California Institute of Technology, priority 2013, published 2014)

Tested on: Drosophila melanogater
Assay: Evaluation of VanDal system in biological control (in vivo functionality, survival of transgenic lines and progeny)
Settings: diet supplemented with a low dose vanillic acid
Description: To engineer a dominant vanillic acid-repressible lethal system (VanDal system), a plasmid was constructed, in which the C-terminus of VanR was fused with the Herpes simplex virus transactivation domain VP16, generating a chimeric transcription factor (vanRTF) (as descried in Hagmann et al., 1997). The chimeric transcription factor VanR^TF was driven at high levels, in a ubiquitous pattern, using a baculovirus immediate early (iel) promoter separated by a baculovirus enhancer (hr5) (as described in Bossin et al., 2007). On the same plasmid, but facing in the opposite direction, VanO operator sequences were placed upstream of the P_hsp70^min promoter (as described in Amin et al., 1987), and the P_hsp70^min promoter drove the expression of toxin VP16. The vanillic acid-repressible lethal system resides in a single piggyback transposable element that also includes a positive selection marker gene, (Opie2-dsRed), to facilitate the identification of transgenic insects.
In this example, in vivo functionality of the VanDal system prepared according to the general procedure of Example 1 was evaluated in Drosophila melanogater, an insect model organism. […] To simulate a release into the wild, two crosses in the absence of vanillic acid were set up: 1) homozygous VanDal males mated separately to wildtype virgin females and 2) homozygous Vandal females mated separately to wildype males.

`COc1cc(C(=O)O)ccc1O` [vanillic acid, 4-hydroxy-3-methoxybenzoic acid] was tested, and the “survival of transgenic VanDal lines” value was “only survive when fed a diet supplemented with a low dose vanillic acid”.
